One compound from US9884874B2, “Bromodomain-inhibiting compounds and pharmaceutical composition comprising same for preventing or treating a cancer” (KAINOS MEDICINE, INC., priority 2014, dated 2018) can be followed below.

For data set [1], the system named is MOLM13 (acute myeloid Leukemia). Kind of data set: Anti-proliferative activity, MOLM13. The data set is classed as cell-based. Particulars: Homo sapiens, MOLM-13, read-out: Cell proliferation, IC50.
The nature of data set [2]: Pharmacokinetics in Sprague Dawley rats. In kind it is in vivo, Sprague Dawley (SD) rats. Particulars: plasma, rat. As to the method:
For serum compound analysis, blood samples were collected by cardiac puncture over 24 hr time course. 20 μL of spiked plasma was added into a 96-well plate, adding ten volumes of internal standard (IS) in acetonitrile (ACN) to the obtained precipitated protein mixed thoroughly, centrifuged at 4,000 rpm for 10 min. 150 μL of supernatant thus obtained was transferred to another pre-labeled 96-well plate, mixed with 150 μL of water. 5 μL or 10 μL of the mixture was injected into the LC-MS system under the following conditions:
Column: API-4000+Waters UPLC (TCLM08);
Lower limit of quantification (LLOQ) was at 1 ng/mL. Pharmacokinetic parameters of half-life (T1/2), clearance (CL), maximum plasma concentration (Cmax), mean residence time (MRT) and bioavailability (F %), plasma exposure (AUC) of the compound were calculated using Phoenix WinNonlin 6.3 (non-compartmental model).
Also, pharmacokinetics of compound 1 was evaluated in Sprague Dawley (SD) rats following IV administration at 3 mg/kg or 10 mg/kg dose level, and PO administration at 3 mg/kg or 10 mg/kg dose level, respectively.

For data set [3], the system named is LnCAP (human prostatic adenocarcinoma cell line). As to the kind of experiment: Anti-proliferative activity test (CellTiter-Glo), LnCAP. Particulars: first value of LnCAP/MV4-11 cell, read-out: Cell proliferation IC50 (LnCAP). In kind it is cell-based. As to the method: (§1) IC50 (uM) of the compounds obtained in Examples 1 to 18 against hematological cancer cells and solid tumors was measured for identifying anti-proliferative activities.
(§2) A human prostatic adenocarcinoma cell line, LnCAP (ATCC®, CRL-1740) and human leukemia cell line MV4-11 (ATCC®, CRL-9591) were used to test the degrees of the compounds 1 to 18 in inhibiting the cancer cell growth. The testing cell concentration was adjusted to 6.7×10^3 cells/ml with a culture medium supplemented with 10% FBS, in the temperature of 37° C., 5% CO2 and 95% humidity. Culture media and FBS were purchased from GIBCO. 90 μL of cell suspensions thus obtained was added to two 96-well plates with the final cell density of 600 cells/well, followed by addition of 10 μL of culture medium to each well of plate. The plates were incubated overnight in a humidified incubator at 37° C. with 5% CO2.
(§3) Compounds 1 to 18 were each dissolved with dimethylsulfoxide (DMSO) or phosphate buffer solution (PBS) as a stock solution, and 200× solutions of test compound (2 mM) using DMSO were prepared. Then, the DMSO solution thus obtained was diluted 20-fold with culture medium or PBS to obtain 10× working solution. 10 μL of 10× working solution (drug solution) was dispensed to each well (triplicate for each concentration). The final concentration of DMSO in culture medium was 0.5% [v/v].
(§4) Cell viability was determined using CellTiter-Glo® (CTG) assay. 100 μL of CellTiter-Glo® was added to the equal volume of the cultured cells to read luminescence in EnVision Multi Label Reader.

The target in the next data set is human BRD4 bromodomain 1 (Homo sapiens (Human), UniProt O60885). Kind of data set: Bromodomain binding assay (BRD4 Alpha-screen). Particulars: acetylated histone H4 peptide. The method, then:
Bromodomain binding assays were carried out in Reaction Biology (PA, USA) to test the degrees of the inventive compounds in inhibiting the human BRD4 bromodomain 1 by Alpha-screen assay method.
Recombinant human BRD4 bromodomain 1 expressed in E. coli with N-terminal His-tag was used as the enzyme target.
A synthetic peptide ([…]-GSGSK-biotin) containing 1 to 21th amino acids of histone H4 acetylated at lysine 5, 8, 12 and 16 and conjugated to biotin was purchased from Millipore.
BRD4-1 (44 to 170th amino acids; Genbank Accession # NM_058243) was expressed in E. coli with N-terminal His-tag (see, Ni-NTA spin Kit Handbook (Qiagen), second edition, January, 2008). Nickel-Chelate ALPHA acceptor beads (Perkin Elmer) were used to specifically bind BRD4-1, and ALPHA streptavidin donor beads (Perkin Elmer) were used because they specifically recognized the biotinylated H4 peptide.
BRD binding assays were performed in a mixture comprising 50 mM Hepes (pH7.5), 100 mM NaCl, 0.05% CHAPS, 0.1% BSA, and 1% DMSO. After an assay reaction time of 60 min at 25° C., binding was measured with streptavidin donor beads and nickel-chelate acceptor beads. ALPHA signal was detected on Enspire (Ex/Em=680/520-620 nm). IC50 values were calculated from the fit of the dose-response curves. All IC50 values represent geometric mean values of a minimum of four determinations. These assays generally produced results within 3-fold of the reported mean.

Data set [4] has as its system A375 (malignant melanoma). Kind of data set: Anti-proliferative activity, A375. The data set is classed as cell-based. Particulars: Homo sapiens, A-375, read-out: Cell proliferation, IC50.
The subject of a further data set is OPM-2 (multiple myeloma). Kind of data set: Anti-proliferative activity, OPM-2. In kind it is cell-based. Particulars: Homo sapiens, read-out: Cell proliferation, IC50.
Data set [5] has as its system RS4;11 (acute lymphoblastic leukemia). As to the kind of experiment: Anti-proliferative activity, RS4;11. Particulars: Homo sapiens, read-out: Cell proliferation, IC50. In kind it is cell-based.
The subject of data set [6] is MV4-11 (human leukemia cell line). Kind of data set: Anti-proliferative activity test (CellTiter-Glo), MV4-11. The data set is classed as cell-based. Particulars: second value of LnCAP/MV4-11 cell, read-out: Cell proliferation IC50 (MV4-11). As to the method: as §1, §2, §3, §4
The test system of data set [7] is MOLT-4 (acute lymphoblastic leukemia). Kind of data set: Anti-proliferative activity, MOLT-4. Particulars: Homo sapiens, read-out: Cell proliferation, IC50. In kind it is cell-based.

Molecules are shown by their SMILES.

Regarding `COc1ccc2c(c1)C(c1ccc(Cl)cc1)=N[C@@H](COS(C)(=O)=O)c1nnc(C)n1-2` [Compound 1, (R)-(6-(4-chlorophenyl)-8-methoxy-1-methyl-4H-benzo[f]-[1,2,4]triazolo[4,3-a][1,4]diazepin-4-yl)methyl methanesulfonate], the IC50 in [1] turned out to be 1520 nM; in data set [3], 470 nM; at human BRD4 bromodomain 1 it was 190 nM; in data set [4] it was 5570 nM; in the data set on OPM-2 (multiple myeloma), 1450 nM; in data set [5], 3140 nM. In addition, the IC50 in data set [6] amounted to 310 nM; in data set [7] it was 2630 nM. For the same compound, the area under the curve (AUC) came out at 2 µM·h in data set [2] (IV, 3 mg/kg); 15.4 µM·h in data set [2] (IV, 10 mg/kg); 1 µM·h in data set [2] (PO, 3 mg/kg); 13.6 µM·h in [2] (PO, 10 mg/kg). In addition, the clearance stood at 54.8 mL/min/kg in data set [2] (IV, 3 mg/kg) and 24.9 mL/min/kg in data set [2] (IV, 10 mg/kg). For the same compound, the mean residence time MRT in data set [2] (IV, 10 mg/kg) came out at 1.86 h. For the same compound, the bioavailability in [2] (PO, 3 mg/kg) was 50.6%; in data set [2] (PO, 10 mg/kg), 88.6%.
